Entries after “also recorded” stand apart in the source; their conditions may differ. Where two headings read alike, the source gives them in different places.

In data set [1] the test system is ACS1028-ECs. Description: Cell survival of purified iPSC-ECs by light microscopy cell counting / Trypan blue. The class given is cell-based. The following applies: for cell survival: serial passaging. How it is done: There were three biological replicates for each group in each experiment, unless otherwise specified. For MitoTracker quantification, total fluorescence signal for the area was measured in Fiji and divided by the number of nuclei present. This was done for 5 fields of view (technical replicates) and averaged to generate a data point for a given biological replicate. For the DAF-FM reduction measurements for NO production, a given experimental condition was plated into 3 wells of a 96 well plate. For TEM analysis, each biological sample was imaged in a minimum of 5 locations. Three representative images from each condition were utilized for quantifying autolysosomes per high power field (HPF) in each of two separate experiments. For light microscopy images, cells were manually counted from three distinct areas of a given experimental condition on two separate occasions. All data wereanalyzed with one-way ANOVA with a post-hoc Tukey test in IBM SPSS Statistics for Macintosh, version 27 (IBM Corp., Armonk, N.Y., USA). A p value of <0.05 was considered significant, where * represent comparisons between the specified groups.
(§1) Experiments were conducted to determine whether inducing autophagy in iPSC-ECs overcomes the premature senescence phenomenon. […] Due to the loss of proliferating cells in the control culture, the experiment was terminated at passage 3.
(§2) To assess whether the effect of Rg2 on proliferation is mediated through autophagy, ACS1028-ECs was administered with 200 μM Rg2 and SBI-0206965 to block ULK1 kinase at varying concentrations. Cell survival was assessed by counting the number of cells per high power field by light microscopy, which diminished over serial passages in the DMSO-treated vehicle-control condition.

In another data set the test system is Drp1. The data set can be described thus: Western blotting, phosphorylation of Drp1 in iPSC-ECs. Type of data set: cell-based. The following applies: human iPSC-derived endothelial cells. An excerpt: (§3) Milk solution was removed, and membranes rinsed in TBST. […] ECL was applied for chemiluminescence. Imaging was done using Bio-Rad imager.
Another data set has as its system Parkin. The data set can be described thus: Western blotting, Parkin expression in iPSC-ECs. Type of data set: cell-based, human. The following applies: particularly under bafilomycin treated conditions.
Excerpt: as §3
(In general: A western blot detects proteins with antibodies after separation by electrophoresis.)

A further data set relates to PDH. Description: Western blotting, PDH expression in iPSC-ECs. To be noted: particularly under bafilomycin treated conditions. Type of data set: cell-based, human.
Excerpt: as §3

In a further data set the test system is PKM2. The data set can be described thus: Western blotting, phosphorylation of PKM2 in iPSC-ECs. Type of data set: cell-based, human. The following applies: particularly under bafilomycin treated conditions.
Excerpt: as §3

For the next data set, the system named is LC3-II. The data set can be described thus: Western blotting of LC3-II (normalized to GAPDH) in ACS1028-EC lysate. The class given is cell-based, human. To be noted: ACS1028-ECs. How it is done:
Western blotting was performed using a modified Novus Biological protocol (NB100-2220) with 10%, 12%, 14% or 4-20% gradient SDS-PAGE gels. Cells were collected and lysed with RIPA buffer plus PMSF protease inhibitor. Cell lysate was centrifuged at high speed for 10 minutes at 4° C., and the supernatant was transferred to a fresh tube. The total protein content was quantified with a Bradford assay, and a total of 20 ug of protein was mixed with Laemmli buffer (4% SDS, 5% 2-mercaptoethanol (BME), 20% glycerol, 0.004% bromophenol blue, 0.125 M Tris HCl, pH 6.8) and denatured for 10 minutes at 95° C. This was followed by wet transfer to PVDF immobilon membrane (Millipore IPFL00010) and blocked with Odyssey TBS blocking buffer (LiCor 927-50000). […] Bands were quantified and normalized by a ratio of LC3-II:GAPDH, rather than LC3-II:LC3-I as LC3-II is more sensitive in blotting and accurate observed alone.
as §2

In the next data set the test system is SIRT1. Description: Western blotting, SIRT1 expression in iPSC-ECs. Type of data set: cell-based. The following applies: human iPSC-derived endothelial cells.
Excerpt: as §3

The test system of another data set is Opal. Description: Western blotting, Opal expression in iPSC-ECs. Type of data set: cell-based. To be noted: human iPSC-derived endothelial cells.
Excerpt: as §3

Data set [2] relates to endothelial nitric oxide synthase. The data set can be described thus: Western blotting, phosphorylation of endothelial nitric oxide synthase in iPSC-ECs. The class given is cell-based. To be noted: human iPSC-derived endothelial cells.
Excerpt: as §3

Data set [3] concerns ACS1028-ECs. The data set can be described thus: Cell proliferation assay (EdU labeling) of iPSC-ECs over serial passages. Type of data set: cell-based, human. As for the experimental part:
Proliferating cells were labeled with EdU using the Invitrogen Click-iT microplate assay kit (Invitrogen C10214), without the use of the Amplex Ultra red step. Cells were labeled for 24 hours with 10 μM EdU or DMSO as a vehicle control. Cells were fixed and prepared according to the manufacturer's instructions, minus the Amplex Ultra red labeling. Hoechst 33342 was added at 5 μg/mL (Invitrogen H1399), and labeled cells were imaged on a Zeiss inverted fluorescence microscope. Four tiled images at 10× magnification were collected per each well of 3 biological replicates per condition and stitched together as a single image per well for analysis. EdU-labeled and total nuclei were counted in Fiji.
as §1

The subject of a further data set is ACS1028-derived ECs. The data set can be described thus: Mitophagy inducing drug experiment, cell number by total Hoechst signal. The following applies: all concentrations, by passage 1.
The test system of another data set is Y6-derived ECs. The description is as above. The following applies: all concentrations, by passage 1.
In the next data set the test system is CD144 and CD31. The data set can be described thus: Immunostaining for CD144 and CD31 and morphology of iPSC-ECs. The class given is cell-based, human. To be noted: ACS1028 and Y6 iPSC-ECs. As for the experimental part: Immunostaining was performed by fixing cells in 4% paraformaldehyde for 15 minutes at room temperature and then washing with PBS. Cells were then permeabilized with 70% ice cold ethanol on ice and blocked with 0.5% BSA in PBS for 15 minutes at room temperature. Cells were then incubated overnight at 4° C. with the primary antibody in antibody dilution buffer (0.05% BSA in PBS) at the following concentrations: Nanog (Life Technologies PA1-097, 1:100), SSEA4 (Life Technologies 414000, 1:400), Sox2 (Life Technologies PA1-16968, 1:100), VE-cadherin/CD144 (Sigma V1514, 1:200), PECAM1/CD31 (Abcam ab187377, 1:100). The isotype control antibodies used in this study were mouse IgG1 (Abcam ab172730) and rabbit serum. Cells were washed with PBS and incubated with conjugated secondary antibodies at room temperature in the dark (Life Technologies, 1:300).

Description for ACS1028-derived ECs: (§4) The effect of increasing mitophagy in iPSC-ECs was evaluated.
Description for Y6-derived ECs: as §4
Description for cleaved caspase 3: Utilizing 8%, 10%, and 14% polyacrylamide gels, samples were run at 150V for 1 to 2 hours in SDS-Tris-Glycine buffer. Gels were then transferred to nitrocellulose membrane for two and half hours at 0.35 Amps in Tris-Glycine transfer buffer. After transfer nitrocellulose membranes were blocked in 10% milk/TBST solution for 1 hr. Milk solution was removed, and membranes rinsed in TBST. Blocked membranes were cut and placed in primary antibody solution (5% BSA/TBST) overnight. After incubation with primary antibody incubation membranes were washed with TBST for 5 mins 3X. Secondary antibody incubation (Rabbit 1:1000) in 5% BSA solution was applied for 2 hrs. After secondary antibody incubation membranes were washed with TBST for 15 mins 3X. ECL was applied for chemiluminescence. Imaging was done using Bio-Rad imager.

For the compound `NCCCCNCCCN` [spermidine], the “residual cells, Trypan blue” value in the data set with ACS1028-ECs [1] (purified ACS1028-ECs incubated overnight with Trypan blue) is recorded as “no residual cells”. In addition, in the data set with ACS1028-ECs [1] (purified ACS1028-ECs, versus control and DMSO-vehicle control), the “presence of cells by light microscopy” value was “no cells visible”.

Regarding `CC(C)=CCC[C@](C)(O)[C@H]1CC[C@]2(C)[C@@H]1[C@H](O)C[C@@H]1[C@@]3(C)CC[C@H](O)C(C)(C)[C@@H]3[C@@H](O[C@@H]3O[C@H](CO)[C@@H](O)[C@H](O)[C@H]3O[C@@H]3O[C@@H](C)[C@H](O)[C@@H](O)[C@H]3O)C[C@]12C` [Rg2], the “phosphorylation of Drp1 (mitochondrial fission)” value with Drp1 is listed as “increased phosphorylation of Drp1”. In the data set on Parkin, the “Parkin (mitophagy marker) expression” value is “increased Parkin expression; also recorded: slightly increases”. For the same compound, in the data set on cleaved caspase 3, the “apoptosis (cleaved caspase 3)” value is reported as “no increase in cleaved caspase 3”. Besides, the “expression of PDH” value in the data set on PDH is “increased”. The “phosphorylation of PKM2” value in the data set on PKM2 is “increased phosphorylation of PKM2”. In the data set on LC3-II (passage 3, Rg2 treated vs DMSO), the “LC3-II level by Western blotting” value is given as “increase in LC3-II level”. For the same compound, the SIRT1 expression entry in the data set on SIRT1 was “increased expression of longevity protein SIRT1 in a dose-dependent manner”. The “expression of Opal (mitochondrial fusion)” value with Opal is given as “increased”. For the same compound, the cell survival result in the data set on ACS1028-ECs [1] (purified ACS1028-ECs) is reported as “improved cell survival”. Besides, in data set [2], the “phosphorylation (activity) of endothelial nitric oxide synthase” value is “increased phosphorylation”. Besides, the “persistence of the proliferation benefit over serial passages” value in the data set on ACS1028-ECs [3] (serial passages, experiment terminated at passage 3) is on record as “persisted through passage 3; also recorded: sustained through passage 3”. The “proliferation (EdU labeled cells)” value in the data set with ACS1028-ECs [3] (versus DMSO vehicle control and rapamycin, ML246, Antimycin A or oligomycin) is reported as “increased rate of proliferation; also recorded: statistically significant improvement in proliferation”.

With `CNC(=O)c1ccccc1Oc1nc(Nc2cc(OC)c(OC)c(OC)c2)ncc1Br` [SBI-0206965], the “LC3-II level by Western blotting, co-treatment with Rg2” value in the data set on LC3-II (passage 3, SBI-0206965 at any concentration added to Rg2) is “reduced”. In addition, in the data set with ACS1028-ECs [1], the “presence of cells by light microscopy” value is listed as “no cells visible” and the “residual cells, Trypan blue” value was “no residual cells”. The “cell survival (cells per high power field), co-treatment with Rg2” value in the data set with ACS1028-ECs [1] (10 μM (highest concentration) in the presence of 200 μM Rg2, passages 2 and 3) was “almost no surviving cells”. For the same compound, the cell survival entry with ACS1028-ECs [1] (purified ACS1028-ECs) is listed as “no cells surviving to passage 1”. For the same compound, the “cell survival (cells per high power field), co-treatment with Rg2” value in the data set with ACS1028-ECs [1] (varying concentrations of SBI-0206965 in the presence of 200 μM Rg2, survival to passage 3) is given as “fewer cells surviving when treated with higher concentrations; also recorded: statistically significant reduction in cell survival in a dose-dependent manner”.

As for Antimycin A, the “cell loss / cell survival (total Hoechst signal)” value (“cell loss / cell survival” below) in the data set on ACS1028-derived ECs was “high levels of cell loss; also recorded: decreased cell survival”. In addition, in the data set on Y6-derived ECs, the “cell survival (total Hoechst signal)” value is on record as “decreased cell survival”. The “CD144 and CD31 expression and typical morphology (mature endothelial cell phenotype)” value in the data set on CD144 and CD31 is “accelerated the loss of CD144 and CD31 as well as typical morphology”.

Take `N=c1c2c(-c3ccccc3)c(-c3ccccc3)n(Cc3ccccc3)c2ncn1[C@H]1CC[C@H](O)CC1` [ML246]: in the data set with ACS1028-ECs [1], the “presence of cells by light microscopy” value is listed as “no cells visible” and the “residual cells, Trypan blue” value is reported as “no residual cells”.

With `N#CC(C#N)=NNc1ccc(OC(F)(F)F)cc1` [FCCP], in the data set on ACS1028-derived ECs, the “cell loss / cell survival” value is reported as “high levels of cell loss”. Moreover, in the data set with CD144 and CD31, the “CD144 and CD31 expression and typical morphology (mature endothelial cell phenotype)” value was “accelerated loss of mature endothelial cell phenotype”.

Consider `Oc1ccc(C=Cc2cc(O)cc(O)c2)cc1` [resveratrol], for which, in the data set with ACS1028-ECs [1], the “presence of cells by light microscopy” value is given as “no cells visible” and the “residual cells, Trypan blue” value is “no residual cells”. Further, the cell survival result with ACS1028-ECs [1] (purified ACS1028-ECs) is recorded as “no cells surviving to passage 1”.

On to `CC[C@H]1/C=C/C=C/C[C@@H](C)[C@H](O)[C@@](C)(O)C(=O)[C@@H](C)[C@H](O)[C@@H](C)C(=O)[C@@H](C)[C@H](O)[C@@H](C)/C=C/C(=O)O[C@@H]2[C@H](C)[C@H](CC1)O[C@]1(CC[C@H](C)[C@H](C[C@@H](C)O)O1)[C@H]2C` [oligomycin], for which the “cell loss / cell survival” value with ACS1028-derived ECs is listed as “high levels of cell loss; also recorded: decreased cell survival”. Besides, the “cell survival (total Hoechst signal)” value in the data set with Y6-derived ECs is recorded as “decreased cell survival”. The “CD144 and CD31 expression and typical morphology (mature endothelial cell phenotype)” value in the data set with CD144 and CD31 was “accelerated the loss of CD144 and CD31 as well as typical morphology”.

(Values after patent publication US20240010992A1, “COMPOSITIONS AND METHODS TO IMPROVE IPSC-EC FUNCTION” (Northwestem University, priority 2022, published 2024).)
